Laboratory results reported in patent US7244438B2, “Uses for polycationic compounds” (Intercell AG, priority 2001, dated 2007).
Where no end group is shown, it is not given here.

Assays:
[1] = tested on: mouse bone marrow-derived CD11c+ dendritic cells; assay: Cytokine production by dendritic cells incubated with poly-L-arginine and/or CpG-ODN (example 5); type: cell-based; conditions: CD11c+ dendritic cells incubated in vitro
Procedure: In parallel, in vitro studies were performed to clarify whether the complexation of CpG-ODN by poly-L-arginine can also directly influence the stimulation of mouse bone marrow-derived CD11c^+ dendritic cells by CpG-ODN concerning the production of TNF-α and IL-6. For this purpose, CD11c^+ dendritic cells were incubated either with poly-L-arginine, CpG-ODN or the combination of poly-L-arginine and CpG-ODN (example 5). The levels of TNF-a and IL-6 were determined in the supernatants derived from these cultures.

human dendritic cells = assay: Polyinosinic-polycytidylic acid-induced cytokine production by human dendritic cells; type: cell-based; conditions: human dendritic cells in vitro
[2] = mouse, in vivo, sc
Procedure: In order to investigate this assumption, fluorescence-labeled compounds were injected together subcutaneously into the flank of mice. At different time points after this treatment, injection sites were inspected for the presence of labeled compounds.
Experimental Groups (1 Mouse/Group 1/Indicated Time Point, 3 Mice/Group 2–4/time Point) • 1. untreated • 2. TRP-2181-188-FITC • 3. pR60-TRITC • 4. CpG-ODN1668-Cy5 • 5. TRP-2-FITC+pR60-TRITC • 6. TRP-2181-188-FITC+CpG-ODN-Cy5 • 7. pR60-TRITC+CpG-ODN 1668-Cy5 • 8. TRP-2 181-188-FITC+pR 60-TRITC+CpG-ODN 1668-Cy5
On day 0 mice were injected subcutaneously into the right flank with a total volume of 100 μl containing the above mentioned compounds. Animals were sacrificed at day 4 after injection and photos were taken from the injection sites (FIG. 3).

Poly-L-Arginine
IL-6 in culture supernatants [1]: neither TNF-α nor IL-6 were detectable | TNF-α in culture supernatants [1]: neither TNF-α nor IL-6 were detectable | polyinosinic-polycytidylic acid-induced production of pro-inflammatory cytokines (human dendritic cells): inhibits

TRP-2181-188-peptide-FITC: FITC-labeled TRP-2-Peptide (VYDFFVWL), MHC class I (H-2Kb)-restricted epitope of mouse tyrosinase related protein-2 (not fully specified (N-terminus); also: FITC label; UniProt P29812 181-188, looked up, fragment)
TRP-2 peptide-FITC detectable at the injection site [2]: not detectable at the injection site at day 4
